The source of these data is patent US20230041738A1, “1H-PYRAZOLO[4,3-d]PYRIMIDINE COMPOUNDS AS TOLL-LIKE RECEPTOR 7 (TLR7) AGONISTS” (BRISTOL-MYERS SQUIBB COMPANY, priority 2020, published 2023).

Each structure is given as a SMILES string.

The target in one test is T1, human TLR7 (Homo sapiens, UniProt Q9NYK1).
T1 construct: host or cells: HEK-Blue TLR7 cells (engineered human embryonic kidney cells)
T1 sequence (Q9NYK1 27-1049): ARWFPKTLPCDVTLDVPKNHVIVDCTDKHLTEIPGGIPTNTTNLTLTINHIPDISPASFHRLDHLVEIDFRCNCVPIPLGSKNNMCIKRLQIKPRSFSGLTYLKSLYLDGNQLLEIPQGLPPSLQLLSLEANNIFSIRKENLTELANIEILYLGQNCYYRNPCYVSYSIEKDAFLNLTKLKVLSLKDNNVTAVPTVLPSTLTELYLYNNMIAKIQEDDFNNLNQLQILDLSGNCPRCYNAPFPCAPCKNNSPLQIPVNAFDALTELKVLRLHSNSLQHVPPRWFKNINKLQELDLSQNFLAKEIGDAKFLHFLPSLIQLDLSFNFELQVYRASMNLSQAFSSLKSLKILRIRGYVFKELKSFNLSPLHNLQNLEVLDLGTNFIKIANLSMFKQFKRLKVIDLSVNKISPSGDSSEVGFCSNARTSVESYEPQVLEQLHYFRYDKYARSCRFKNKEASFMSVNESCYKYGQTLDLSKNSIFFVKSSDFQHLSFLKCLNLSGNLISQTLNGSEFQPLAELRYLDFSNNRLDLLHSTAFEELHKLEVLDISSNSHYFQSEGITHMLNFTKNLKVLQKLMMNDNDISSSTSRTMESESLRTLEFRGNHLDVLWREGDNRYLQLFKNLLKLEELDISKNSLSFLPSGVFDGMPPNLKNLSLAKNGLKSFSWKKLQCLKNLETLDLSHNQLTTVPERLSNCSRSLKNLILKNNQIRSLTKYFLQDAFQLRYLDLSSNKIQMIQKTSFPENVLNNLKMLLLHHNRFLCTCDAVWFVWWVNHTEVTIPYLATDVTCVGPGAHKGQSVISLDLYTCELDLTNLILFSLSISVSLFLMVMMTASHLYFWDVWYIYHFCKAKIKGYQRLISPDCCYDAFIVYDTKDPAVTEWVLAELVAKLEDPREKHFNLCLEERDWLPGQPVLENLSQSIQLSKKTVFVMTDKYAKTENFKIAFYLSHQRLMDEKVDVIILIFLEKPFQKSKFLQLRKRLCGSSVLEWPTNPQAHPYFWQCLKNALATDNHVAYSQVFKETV
In words: Human TLR7 agonist activity assay (hTLR7 reporter, HEK-Blue TLR7 cells, SEAP). Format: cell-based. As to conditions: HEK-Blue TLR7 cells with SEAP reporter, 18 h treatment; average where assay performed multiple times. As for the experimental part: This procedure describes a method for assaying human TLR7 (hTLR7) agonist activity of the compounds disclosed in this specification.
HEK-Blue™ TLR7 cells were added to each well of a 384-well tissue-culture plate (15,000 cells per well) and incubated 16-18 h at 37° C., 5% CO2. Compounds (100 nl) were dispensed into wells containing the HEK-Blue™ TLR cells and the treated cells were incubated at 37° C., 5% CO2. After 18 h treatment ten microliters of freshly-prepared Quanti-Blue™ reagent (Invivogen) was added to each well, incubated for 30 min (37° C., 5% CO2) and SEAP levels measured using an Envision plate reader (OD=620 nm). The half maximal effective concentration values (EC50; compound concentration which induced a response halfway between the assay baseline and maximum) were calculated.

In the next test the test system is CD69. In words: Induction of CD69 in human whole blood (hWB). Conditions: 17 hrs at 37 C, CD69 surface staining, 100% set to 1 uM resiquimod, average where performed multiple times. Format: cell-based. Here is the method: The induction of Type I interferon (IFN) MX-1 genes and the B-cell activation marker CD69 are downstream events that occur upon activation of the TLR7 pathway. The following is a human whole blood assay that measures their induction in response to a TLR7 agonist.
Heparinized human whole blood was harvested from human subjects and treated with test TLR7 agonist compounds at 1 mM. The blood was diluted with RPMI 1640 media and Echo was used to predot 10 nL per well giving a final concentration of 1 uM (10 nL in 10 uL of blood). After mixing on a shaker for 30 sec, the plates were covered and placed in a 37° C. chamber for o/n=17 hrs. Fixing/lysis buffer was prepared (5×→1× in H2O, warm at 37° C.; Cat #BD 558049) and kept the perm buffer (on ice) for later use.
For surface markers staining (CD69): prepared surface Abs: 0.045 ul hCD14-FITC (ThermoFisher Cat #MHCD1401)+0.6 ul hCD19-ef450 (ThermoFisher Cat #48-0198-42)+1.5 ul hCD69-PE (cat #BD555531)+0.855 ul FACS buffer. Added 3 ul/well, spin1000 rpm for 1 min and mixed on shaker for 30 sec, put on ice for 30 mins. Stop stimulation after 30 min with 70 uL of prewarmed 1× fix/lysis buffer and use Feliex mate to resuspend (15 times, change tips for each plate) and incubate at 37C for 10 min.
Centrifuge at 2000 rpm for 5 min aspirate with HCS plate washer, mix on shaker for 30 sec and then wash with 70 uL in dPBS and pelleted 2× s (2000 rpm for 5 min) and 50 ul wash in FACS buffer pelleted 1×s(2000 rpm for 5 min). Mix on shaker for 30 sec. For Intracellular markers staining (MX-1): Add 50 ul of BD Perm buffer III and mix on shaker for 30 sec. Incubate on ice for 30 min (in the dark). Wash with 50 uL of FACS buffer 2× (spin @2300 rpm×5 min after perm) followed by mixing on shaker for 30 sec. Resuspended in 20 ul of FACS buffer containing MX1 antibody ( )(4812)-Alexa 647: Novus Biologicals #NBP2-43704AF647) 20 ul FACS bf+0.8 ul hlgG+0.04 ul MX-1. Spin 1000 rpm for 1 min, mix on shaker for 30se and the samples were incubated at RT in the dark for 45 min followed by washing 2× FACS buffer (spin @2300 rpm×5 min after perm). Resuspend 20 ul (35 uL total per well) of FACS buffer and cover with foil and place in 4° C. to read the following day. Plates were read on iQuePlus. The results were loaded into toolset and IC50 curves are generated in curve master. The y-axis 100% is set to 1 uM of resiquimod.

For `CCC[C@@H](CCO)Nc1nc(N)nc2cnn(Cc3ccc(CN4C[C@@H]5C[C@H]4CN5C(C)=O)cc3OC)c12` [Compound 101, 1-[(1S,4S)-5-({4-[(5-amino-7-{[(3S)-1-hydroxyhexan-3-yl]amino}-1H-pyrazolo[4,3-d]pyrimidin-1-yl)methyl]-3-methoxypheyl}-methyl)-2,5-diazabicyclo[2.2.1]-heptan-2-yl]ethan-1-one], on human TLR7, the midpoint of the response, the EC50, lay at 28.8 nM. Still for that read-out and setting: under `CCCCNc1nc(N)nc2cnn(Cc3ccc(CN4C5CNCC4C5)cc3OC)c12` [Compound 102, N7-butyl-1-{[4-({3,6-diazabicyclo-[3.1.1]heptan-6-yl}methyl)-2-methoxyphenyl]methyl}-1H-pyrazolo-[4,3-d]pyrimidine-5,7-diamine] stands 89.6 nM; under `CCCCNc1nc(N)nc2cnn(Cc3ccc(CN4C[C@H]5CN(C)C[C@H]5C4)cc3OC)c12` [Compound 103, 1-[(4-{[(3aR,6aS)-5-methyl-octa-hydropyrrolo[3,4-c]pyrrol-2-yl]methyl}-2-methoxyphenyl)methyl]-N7-butyl-1H-pyrazolo[4,3-d]pyrimidine-5,7-diamine], 27.8 nM. `CCCCNc1nc(N)nc2cnn(Cc3ccc(CN4C[C@H]5CCS(=O)(=O)[C@H]5C4)cc3OC)c12` [Compound 104, (3aR,6aR)-5-[(4-{[5-amino-7-(butyl-amino)-1H-pyrazolo[4,3-d]pyrimidin-1-yl]methyl}-3-methoxyphenyl)methyl]-hexahydro-2H-1λ6-thieno[2,3-c] pyrrole-1,1-dione]: at human TLR7, the response was half-maximal at 197 nM (EC50). For the molecule `CCCCNc1nc(N)nc2cnn(Cc3ccc(CN4C[C@H]5C[C@@H]4CN5C)cc3OC)c12` [Compound 105, N7-butyl-1-[(2-methoxy-4-{[(1R,4R)-5-methyl-2,5-diaza-bicyclo[2.2.1]heptan-2-yl]methyl}-phenyl)methyl]-1H-pyrazolo[4,3-d]pyrimidine-5,7-diamine], the EC50 (commonly the midpoint of the concentration-response curve) on human TLR7 stood at 20.7 nM; in the test on CD69, 4.2 nM.

For `COc1cc(CN2C[C@@H]3C[C@H]2CN3)ccc1Cn1ncc2nc(N)nc(NCc3cc(C)on3)c21` [Compound 106, 1-[(4-{[(1S,4S)-2,5-diazabicyclo-[2.2.1]heptan-2-yl]methyl}-2-methoxyphenyl)methyl]-N7-[(5-methyl-1,2-oxazol-3-yl)methyl]-1H-pyrazolo[4,3-d]pyrimidine-5,7-diamine], the EC50 on human TLR7 came out at 234 nM; in the test on CD69 it was 73.6 nM. As to `CCC[C@@H](CCO)Nc1nc(N)nc2cnn(Cc3ccc(CNC4[C@H]5COC[C@@H]45)cc3OC)c12` (stereo partly drawn) [Compound 107, (3S)-3-[(5-amino-1-{[2-methoxy-4-({[(1R,5S,6S)-3-oxabicyclo[3.1.0]-hexan-6-yl]amino}methyl)phenyl]-methyl}-1H-pyrazolo[4,3-d]pyrimidin-7-yl)amino]hexan-1-ol], the EC50 at human TLR7 was determined as 5.3 nM.

For the molecule `CCC[C@@H](CCO)Nc1nc(N)nc2cnn(Cc3ccc(CN[C@H]4C[C@H]5COC[C@H]54)cc3OC)c12` [Compound 108, (3S)-3-[(5-amino-1-{[2-methoxy-4-({[(1R,5R,6S)-3-oxabicyclo-[3.2.0]heptan-6-yl]amino}methyl)phenyl]methyl}-1H-pyrazolo-[4,3-d]pyrimidin-7-yl)amino]hexan-1-ol], on human TLR7, it took 4.9 nM to reach a half-maximal effect (EC50). Regarding `CCC[C@@H](CCO)Nc1nc(N)nc2cnn(Cc3ccc(CN4C[C@@H]5OCC[C@@H]54)cc3OC)c12` [Compound 109, (3S)-3-({5-amino-1-[(2-methoxy-4-{[(1S,5S)-2-oxa-6-azabicyclo-[3.2.0]heptan-6-yl]methyl}phenyl)-methyl]-1H-pyrazolo[4,3-d]pyrimidin-7-yl}amino)hexan-1-ol], the midpoint of the response at human TLR7, the EC50, lay at 2.2 nM. Consider `CCCCNc1nc(N)nc2cnn(Cc3ccc(C(=O)N4C[C@H]5C[C@@H]4CN5C)cc3OC)c12` [Compound 110, N7-butyl-1-({2-methoxy-4-[(1R,4R)-5-methyl-2,5-diazabicyclo-[2.2.1]heptane-2-carbonyl]-phenyl}methyl)-1H-pyrazolo[4,3-d]pyrimidine-5,7-diamine], for which the EC50 at human TLR7 was 378 nM; in the test with CD69, 2 nM. For `CCCCNc1nc(N)nc2cnn(Cc3ccc(C(=O)N4C[C@H]5CN(C)C[C@H]5C4)cc3OC)c12` [Compound 111, 1-({4-[(3aR,6aS)-5-methyl-octahydropyrrolo[3,4-c]pyrrole-2-carbonyl]-2-methoxyphenyl}-methyl)-N7-butyl-1H-pyrazolo[4,3-d]pyrimidine-5,7-diamine], in that order: 16.4 nM and 11.1 nM. On to `CCC[C@@H](CCO)Nc1nc(N)nc2cnn(Cc3ccc(C(=O)N4C[C@H]5CN(C)C[C@H]5C4)cc3OC(F)F)c12` [Compound 124, (3S)-3-{[1-({4-[(3aR,6aS)-5-methyl-octahydropyrrolo[3,4-c]pyrrole-2-carbonyl]-2-(difluoromethoxy)-phenyl}methyl)-5-amino-1H-pyra-zolo[4,3-d]pyrimidin-7-yl]amino}-hexan-1-ol], for which, on human TLR7, the EC50 was 82 nM. For the molecule `CCC[C@@H](CCO)Nc1nc(N)nc2cnn(Cc3ccc(C(=O)N4C[C@H]5C[C@@H]4CN5C)cc3OC(F)F)c12` [Compound 125, (3S)-3-[(5-amino-1-{[2-(difluoro-methoxy)-4-[(1R,4R)-5-methyl-2,5-diazabicyclo[2.2.1]heptane-2-carbonyl]phenyl]methyl}-1H-pyrazolo[4,3-d]pyrimidin-7-yl)amino]hexan-1-ol], the EC50 on human TLR7 amounted to 301 nM. Turning to `COc1cc(CNC23CC(C2)C3)ccc1Cn1ncc2nc(N)nc(NCc3cc(C)on3)c21` [Compound 126, 1-({4-[({bicyclo[1.1.1]pentan-1-yl}amino)methyl]-2-methoxy-phenyl}methyl)-N7-[(5-methyl-1,2-oxazol-3-yl)methyl]-1H-pyra-zolo[4,3-d]pyrimidine-5,7-diamine], the EC50 on human TLR7 was 287 nM. For `COc1cc(CN2C[C@@H]3C[C@H]2CN3CCO)ccc1Cn1nc(C)c2nc(N)nc(NCc3noc(C)n3)c21` [Compound 142, 2-[(1S,4S)-5-({4-[(5-amino-3-methyl-7-{[(5-methyl-1,2,4-oxadiazol-3-yl)methyl]amino}-1H-pyrazolo-[4,3-d]pyrimidin-1-yl)methyl]-3-methoxyphenyl}methyl)-2,5-diaza-bicyclo[2.2.1]heptan-2-yl]ethan-1-ol], on human TLR7, the EC50 turned out to be 1230 nM.
